Assay results reported in patent US10670605B2, “Cysteine reactive probes and uses thereof” (The Scripps Research Institute, priority 2015, dated 2020).
Where a name gives a salt, the structure may show the parent alone.

Assays:
Format in all cases: cell-based
IMPACT C195 (Q9P2X3) = IMPACT C195 (Q9P2X3) (Homo sapiens, UniProt Q9P2X3); experiment: Competitive isoTOP-ABPP in situ; details: fragment 4 at 100 μM, MDA-MB-231 cells
WAPAL C160 (Q7Z5K2) = WAPAL C160 (Q7Z5K2) (Homo sapiens, UniProt Q7Z5K2); experiment: Competitive isoTOP-ABPP in situ; details: fragment 2 at 200 μM, MDA-MB-231 cells
KDM4B C694 (O94953) = biological target: T1, KDM4B C694 (O94953) (Homo sapiens, UniProt O94953); experiment: Competitive isoTOP-ABPP in situ; details: fragment 2 at 200 μM, MDA-MB-231 cells
T1 sequence (O94953 1-1096): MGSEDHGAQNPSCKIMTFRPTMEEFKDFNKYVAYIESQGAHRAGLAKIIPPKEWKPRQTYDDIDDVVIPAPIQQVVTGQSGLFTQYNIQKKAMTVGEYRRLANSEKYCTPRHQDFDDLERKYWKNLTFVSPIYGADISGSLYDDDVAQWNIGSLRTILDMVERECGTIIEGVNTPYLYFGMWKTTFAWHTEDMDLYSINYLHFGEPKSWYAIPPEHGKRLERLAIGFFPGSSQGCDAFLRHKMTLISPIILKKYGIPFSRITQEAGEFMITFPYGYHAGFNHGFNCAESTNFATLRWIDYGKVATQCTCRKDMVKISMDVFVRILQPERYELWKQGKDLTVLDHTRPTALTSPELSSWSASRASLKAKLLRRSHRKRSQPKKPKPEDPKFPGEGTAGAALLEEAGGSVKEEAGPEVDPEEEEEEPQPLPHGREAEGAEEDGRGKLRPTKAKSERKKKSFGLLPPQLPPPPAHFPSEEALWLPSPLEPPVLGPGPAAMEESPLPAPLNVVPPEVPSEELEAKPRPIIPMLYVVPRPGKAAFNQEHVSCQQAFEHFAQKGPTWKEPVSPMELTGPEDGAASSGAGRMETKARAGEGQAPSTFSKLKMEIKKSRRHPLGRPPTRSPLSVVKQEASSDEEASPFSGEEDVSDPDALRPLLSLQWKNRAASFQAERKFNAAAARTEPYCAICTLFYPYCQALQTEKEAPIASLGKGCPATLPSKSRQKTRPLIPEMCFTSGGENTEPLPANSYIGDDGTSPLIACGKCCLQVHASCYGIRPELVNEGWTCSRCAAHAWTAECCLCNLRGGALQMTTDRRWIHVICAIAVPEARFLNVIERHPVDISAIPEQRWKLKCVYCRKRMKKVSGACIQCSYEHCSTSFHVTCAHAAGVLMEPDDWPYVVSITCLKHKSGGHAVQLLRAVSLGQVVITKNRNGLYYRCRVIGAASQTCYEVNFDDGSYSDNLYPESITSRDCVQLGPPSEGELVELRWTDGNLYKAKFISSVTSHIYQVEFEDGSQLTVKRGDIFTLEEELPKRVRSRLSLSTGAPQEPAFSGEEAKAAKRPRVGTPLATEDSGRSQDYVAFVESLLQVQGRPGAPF

SMAD2 C81 (Q15796) = SMAD2 C81 (Q15796) (Homo sapiens, UniProt Q15796); experiment: Competitive isoTOP-ABPP in situ; details: fragment 2 at 200 μM, MDA-MB-231 cells
USP48 C39 (Q86UV5) = biological target: T2, USP48 C39 (Q86UV5) (Homo sapiens, UniProt Q86UV5); experiment: Competitive isoTOP-ABPP in situ; details: fragment 2 at 200 μM, MDA-MB-231 cells
T2 sequence (Q86UV5 1-1035): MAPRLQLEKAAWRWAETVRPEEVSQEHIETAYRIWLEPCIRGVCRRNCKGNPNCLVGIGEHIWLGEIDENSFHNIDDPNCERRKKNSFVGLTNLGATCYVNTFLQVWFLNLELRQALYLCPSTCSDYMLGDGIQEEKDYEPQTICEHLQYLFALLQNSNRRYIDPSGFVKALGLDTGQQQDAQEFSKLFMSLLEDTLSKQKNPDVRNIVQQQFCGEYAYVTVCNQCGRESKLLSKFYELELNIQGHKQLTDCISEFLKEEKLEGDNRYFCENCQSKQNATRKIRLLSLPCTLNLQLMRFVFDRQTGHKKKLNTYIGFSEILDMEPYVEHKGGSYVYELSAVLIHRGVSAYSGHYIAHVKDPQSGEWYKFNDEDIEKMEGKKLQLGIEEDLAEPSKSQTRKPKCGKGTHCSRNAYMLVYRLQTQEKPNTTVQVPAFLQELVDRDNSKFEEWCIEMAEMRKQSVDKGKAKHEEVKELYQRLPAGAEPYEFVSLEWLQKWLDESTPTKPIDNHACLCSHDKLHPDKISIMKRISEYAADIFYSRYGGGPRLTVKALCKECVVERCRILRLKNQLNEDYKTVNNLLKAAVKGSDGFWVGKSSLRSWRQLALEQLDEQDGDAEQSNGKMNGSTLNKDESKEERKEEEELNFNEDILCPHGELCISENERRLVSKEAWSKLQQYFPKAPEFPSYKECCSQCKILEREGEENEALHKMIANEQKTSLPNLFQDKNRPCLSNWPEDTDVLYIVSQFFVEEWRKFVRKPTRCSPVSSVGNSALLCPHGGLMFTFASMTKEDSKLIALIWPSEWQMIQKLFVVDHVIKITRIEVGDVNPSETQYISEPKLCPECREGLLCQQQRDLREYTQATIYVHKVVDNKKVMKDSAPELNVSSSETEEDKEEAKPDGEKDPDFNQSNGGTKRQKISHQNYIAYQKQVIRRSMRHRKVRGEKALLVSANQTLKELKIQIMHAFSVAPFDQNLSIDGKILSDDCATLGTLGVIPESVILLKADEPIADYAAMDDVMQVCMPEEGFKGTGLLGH

[1] = biological target: Cys residues in primary human T cells (Homo sapiens, UniProt Q9NWZ3); experiment: isoTOP-ABPP of compound-treated primary human T cells; details: IRAK4 C13 (Q9NWZ3)
Chain of Cys residues in primary human T cells (Q9NWZ3 whole entry): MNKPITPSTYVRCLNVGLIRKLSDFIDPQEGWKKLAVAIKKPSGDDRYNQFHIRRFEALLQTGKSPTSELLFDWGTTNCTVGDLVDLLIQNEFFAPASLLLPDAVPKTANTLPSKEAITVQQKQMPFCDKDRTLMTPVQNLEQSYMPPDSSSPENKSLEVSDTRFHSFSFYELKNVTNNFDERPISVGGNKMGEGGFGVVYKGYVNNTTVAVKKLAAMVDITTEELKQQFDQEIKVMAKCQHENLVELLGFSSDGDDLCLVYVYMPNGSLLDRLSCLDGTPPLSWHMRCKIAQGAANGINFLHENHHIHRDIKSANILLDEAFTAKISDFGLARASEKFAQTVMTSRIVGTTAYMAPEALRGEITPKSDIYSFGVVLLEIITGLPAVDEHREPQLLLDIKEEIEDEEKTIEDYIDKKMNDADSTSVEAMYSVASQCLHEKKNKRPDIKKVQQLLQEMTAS

Chain of WAPAL C160 (Q7Z5K2) (Q7Z5K2 whole entry, the tested form may be a part): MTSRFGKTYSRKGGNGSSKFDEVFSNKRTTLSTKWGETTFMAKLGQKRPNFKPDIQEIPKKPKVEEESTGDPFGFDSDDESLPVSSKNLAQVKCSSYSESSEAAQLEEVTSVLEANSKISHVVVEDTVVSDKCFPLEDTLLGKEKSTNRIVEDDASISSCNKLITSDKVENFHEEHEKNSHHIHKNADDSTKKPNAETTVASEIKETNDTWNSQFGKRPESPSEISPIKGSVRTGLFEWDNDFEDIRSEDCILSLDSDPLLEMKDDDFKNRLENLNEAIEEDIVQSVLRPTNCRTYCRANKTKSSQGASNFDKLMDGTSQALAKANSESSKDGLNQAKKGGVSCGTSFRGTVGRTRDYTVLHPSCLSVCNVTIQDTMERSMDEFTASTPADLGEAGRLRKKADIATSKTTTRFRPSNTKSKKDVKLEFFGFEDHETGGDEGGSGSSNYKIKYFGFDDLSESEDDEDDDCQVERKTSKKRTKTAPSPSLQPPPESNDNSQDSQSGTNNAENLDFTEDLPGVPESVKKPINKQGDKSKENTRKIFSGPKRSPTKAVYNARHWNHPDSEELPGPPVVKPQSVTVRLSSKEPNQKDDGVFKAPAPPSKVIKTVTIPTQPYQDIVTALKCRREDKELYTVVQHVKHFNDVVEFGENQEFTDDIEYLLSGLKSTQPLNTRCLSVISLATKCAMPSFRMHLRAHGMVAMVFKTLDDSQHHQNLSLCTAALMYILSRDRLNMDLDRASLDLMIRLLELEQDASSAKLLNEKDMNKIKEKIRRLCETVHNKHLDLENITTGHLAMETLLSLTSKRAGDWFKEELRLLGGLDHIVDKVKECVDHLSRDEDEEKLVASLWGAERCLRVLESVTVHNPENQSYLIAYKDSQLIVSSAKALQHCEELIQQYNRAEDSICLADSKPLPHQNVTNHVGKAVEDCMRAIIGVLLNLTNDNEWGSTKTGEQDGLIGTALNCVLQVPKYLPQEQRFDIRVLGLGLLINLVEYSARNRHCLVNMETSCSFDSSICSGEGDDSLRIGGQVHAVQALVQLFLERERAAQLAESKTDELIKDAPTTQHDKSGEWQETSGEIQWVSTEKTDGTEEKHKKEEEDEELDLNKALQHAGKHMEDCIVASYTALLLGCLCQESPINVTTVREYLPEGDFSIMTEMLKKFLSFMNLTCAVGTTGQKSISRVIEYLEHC
Chain of SMAD2 C81 (Q15796) (Q15796 whole entry, the tested form may be a part): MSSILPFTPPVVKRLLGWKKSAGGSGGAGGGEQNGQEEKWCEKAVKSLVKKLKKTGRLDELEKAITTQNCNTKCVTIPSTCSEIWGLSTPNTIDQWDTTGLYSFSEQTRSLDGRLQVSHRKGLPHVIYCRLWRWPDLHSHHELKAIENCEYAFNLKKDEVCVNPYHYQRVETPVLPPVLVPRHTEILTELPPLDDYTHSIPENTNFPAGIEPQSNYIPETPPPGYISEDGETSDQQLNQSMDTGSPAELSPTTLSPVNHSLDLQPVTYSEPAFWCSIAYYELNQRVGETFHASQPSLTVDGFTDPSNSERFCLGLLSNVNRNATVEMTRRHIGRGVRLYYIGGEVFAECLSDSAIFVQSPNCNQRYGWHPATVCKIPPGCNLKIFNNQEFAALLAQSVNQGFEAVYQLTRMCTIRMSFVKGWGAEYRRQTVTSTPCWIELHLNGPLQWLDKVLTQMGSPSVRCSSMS
Chain of IMPACT C195 (Q9P2X3) (Q9P2X3 whole entry, the tested form may be a part): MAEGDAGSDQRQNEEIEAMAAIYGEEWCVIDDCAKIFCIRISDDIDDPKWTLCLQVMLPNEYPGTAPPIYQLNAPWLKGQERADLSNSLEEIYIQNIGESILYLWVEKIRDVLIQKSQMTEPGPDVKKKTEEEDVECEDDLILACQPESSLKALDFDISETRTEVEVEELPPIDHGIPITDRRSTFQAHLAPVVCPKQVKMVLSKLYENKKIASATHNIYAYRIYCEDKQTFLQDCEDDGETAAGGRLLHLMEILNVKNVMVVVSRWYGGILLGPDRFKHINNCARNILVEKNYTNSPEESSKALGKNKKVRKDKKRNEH

In the case of `COc1ccc(C2CC(c3cccs3)=NN2C(=O)CCl)cc1` (stereo not shown) [compound 4], the “isoTOP-ABPP reactivity profile (ratio) 4_100 μM_in-situ_231” value (IMPACT C195 (Q9P2X3)) was 20.0.

For `COc1ccc2c(c1)CCCN2C(=O)CCl` [compound 2], the “isoTOP-ABPP reactivity profile (ratio) 2_200 μM_in-situ_231” value (WAPAL C160 (Q7Z5K2)) was 20.0, the “isoTOP-ABPP reactivity profile (ratio) 2_200 μM_in-situ_231” value (KDM4B C694 (O94953)) was 20.0 and the “isoTOP-ABPP reactivity profile (ratio) 2_200 μM_in-situ_231” value (SMAD2 C81 (Q15796)) was 20.0. For the same compound, the “isoTOP-ABPP reactivity profile (ratio) 2_200 μM_in-situ_231” value (USP48 C39 (Q86UV5)) was 20.0.

In the case of `COC(=O)/C=C/C(=O)OC` [DMF, dimethyl fumarate], the “R value (DMSO/DMF)” value ([1]; DMF 50 μM 1h) was 8.3 and the “R value (DMSO/DMF)” value ([1]; DMF 50 μM 4h) was 20.
